Test results: paper PMC7335187, “Super-assembly of ER-phagy receptor Atg40 induces local ER remodeling at contacts with forming autophagosomal membranes” (Nature Communications, 2020)
Like-named read-outs stand apart in the source and are kept apart here. Where a SMILES comes first, the peptide text is derived from it.

Key:
Type in all cases: binding
GABARAP WT = GABARAP WT (Homo sapiens, UniProt O95166); assay: ITC of ER-phagy receptor peptides with GABARAP; settings: 25 °C, 0.5 mM peptide in syringe, ± fitting error; for N (site), stoichiometry of binding: GABARAP WT in cell
Text: (§1) All plasmids for expression of recombinant proteins and peptides in bacteria were based on a pGEX6P-1 vector (GE Healthcare). Construction of pGEX6P-ScAtg8 (1-116) K26P and pGEX6P-rat LC3B (1-120) was previously described[35],[47]. All mutations were generated by PCR-based mutagenesis. The genes were amplified by PCR and inserted downstream of the HRV 3C protease recognition site by NEBuilder HiFi DNA Assembly Master Mix (New England Biolabs) except for that encoding human GABARAP (1-116), which was inserted using restriction enzymes for the NdeI and BamHI sites. Plasmids for expression of fusion proteins for crystallization were constructed by inserting the genes encoding Atg40^237–252, human FAM134B^450–468, human SEC62^361–376 with the T367D mutation, and human RTN3^245–264 isoform e into upstream of the sequence encoding Atg8 K26P of pGEX6P-Atg8 (the K26P mutation was introduced for stabilizing Atg8) or upstream of the sequence encoding GABARAP of pGEX6P-GABARAP (with the F3S V4T mutations for enhancing crystallization). For phase-separation experiments, the mCherry and BNDL1[25],[26] sequences were inserted into upstream and downstream of the ATG8 gene in pGEX6P-Atg8 K26P, respectively. pGEX-SNAP-40C was constructed by the removal of the HRV 3C protease recognition site and the insertion of the SNAP sequence from pSNAP-tag(T7) vector (New England Biolabs) with a linker (Gly–Gly–Gly–Ser–Gly–Gly–Gly) and Atg40^194–256 following a linker (Ser–Ala–Ser–Ser) to upstream and downstream of GST in pGEX6P-1 vector, respectively. In the construction of plasmids for peptide production, a Tyr residue was attached to their C termini for enabling the quantification by absorbance at 280 nm (Supplementary Table 4).
(§2) Some of peptides (Supplementary Table 4) and all proteins except Atg40-6His were expressed in E. coli BL21 (DE3). Bacteria were cultured at 37 °C until OD600 became 0.8–1.0 and further cultured at 16 °C with 100 μM IPTG overnight. After centrifugation, the pellets were resuspended with 20 ml PBS with 0.5 mM EDTA and lysed by sonication for 10 min. […]

LC3B WT = LC3B WT (Rattus norvegicus, UniProt Q62625); assay: ITC of peptides with LC3B; settings: 25 °C, 0.5 mM peptide in syringe, LC3B WT in cell 10 times lower, single-site model, ± fitting error
Text: as §1, §2

LC3A WT = LC3A WT (Homo sapiens, UniProt Q9H492); assay: ITC of peptides with LC3A; settings: 25 °C, 0.5 mM peptide in syringe, LC3A WT in cell 10 times lower, single-site model, ± fitting error
Protocol: (§3) Some of peptides (Supplementary Table 4) and all proteins except Atg40-6His were expressed in E. coli BL21 (DE3). Bacteria were cultured at 37 °C until OD600 became 0.8–1.0 and further cultured at 16 °C with 100 μM IPTG overnight. After centrifugation, the pellets were resuspended with 20 ml PBS with 0.5 mM EDTA and lysed by sonication for 10 min. After centrifugation, the supernatants were incubated with GST-accept resin (Nacalai tesque). After three times wash by PBS, the proteins were eluted with glutathione buffer (10 mM glutathione and 50 mM Tris pH 8.0). The buffer of the eluates was exchanged with PBS by a Bio-Scale Mini BioGel P-6 desalting column (Bio-Rad). After incubation with GST-fused HRV 3 C protease at 4 °C overnight, the samples were subjected to a GST-accept resin column to remove excised GST and the protease. RTN3^245–264-GABARAP was purified by cation-exchange chromatography using CM Sepharose FF column (GE Healthcare) with 500 mM MES pH 6.0 as buffer B and 50 mM MES pH 6.0 and 1 M NaCl as buffer C. The samples were further subjected to size-exclusion chromatography with 20 mM HEPES pH 6.8, 150 mM sodium chloride except for mCherry-Atg8-CC^tetramer (20 mM HEPES pH 6.8, 500 mM sodium chloride) using a Superdex 75 10/300 or Superdex 200 26/60 column. As described in Supplementary Table 4, the Atg40^237–252 M245A and Atg40^237–252 D243A D247A peptides were synthesized by Cosmo Bio, and the FAM134B^453–460 and SEC62^361–368 peptides were synthesized by BEX Co., Ltd. The Atg40^234–252 peptide and its variants were prepared using Liberty Blue peptide synthesizer (CEM Corporation). After dissolving these synthesized peptides in 300 μl water with ~10 μl ammonium hydroxide, they were subjected to size-exclusion chromatography with 20 mM HEPES pH 6.8 containing 150 mM sodium chloride using a Superdex 75 10/300 column.
Peptides used in ITC are listed in Supplementary Table 4. ITC experiments were performed using Microcal iTC200 calorimeter (Malvern Panalytical), with stirring at 1000 rpm at 25 °C. […]

LC3C WT = LC3C WT (Homo sapiens, UniProt Q9BXW4); assay: ITC of peptides with LC3C; settings: 25 °C, 0.5 mM peptide in syringe, LC3C WT in cell 10 times lower, single-site model, ± fitting error
Protocol: as §3
Peptides used in ITC are listed in Supplementary Table 4. ITC experiments were performed using Microcal iTC200 calorimeter (Malvern Panalytical), with stirring at 1000 rpm at 25 °C. Atg40, FAM134B, SEC62, and RTN3 peptides were prepared as injection samples from the syringe. Concentrations of FAM134B, SEC62, and RTN3 peptides were 0.5 mM, whereas those of Atg40^234–252 and Atg40^237–252 peptides were 2.0 and 1.8 mM, respectively. In total, 200 μl Atg8, LC3A, LC3B, LC3C, GABARAP, GABARAPL1, and GABARAPL2 with 10 times lower concentration than the syringe samples were filled in the cell. As an exception, 1.8 mM Atg8 was filled in the cell when 1.8 mM Atg40^237–252 D243A D247A was in a syringe. The titration involved 18 injections of 2 μl of the syringe sample at intervals of 120 s into a cell after one injection of 0.4 μl of syringe sample. […]

Chain of GABARAP WT (O95166 1-116): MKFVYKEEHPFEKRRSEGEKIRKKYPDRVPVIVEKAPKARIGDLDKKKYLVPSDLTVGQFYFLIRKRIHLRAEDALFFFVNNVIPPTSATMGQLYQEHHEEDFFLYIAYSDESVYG
Chain of LC3C WT (Q9BXW4 whole entry): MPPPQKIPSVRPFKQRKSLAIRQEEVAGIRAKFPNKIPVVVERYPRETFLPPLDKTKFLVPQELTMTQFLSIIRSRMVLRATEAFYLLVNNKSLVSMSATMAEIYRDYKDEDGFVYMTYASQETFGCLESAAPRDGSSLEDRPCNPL

With `CC[C@H](C)[C@H](NC(=O)[C@H](CCC(N)=O)NC(=O)[C@H](CC(=O)O)NC(=O)[C@H](CC(C)C)NC(=O)[C@H](CCC(=O)O)NC(=O)[C@H](CO)NC(=O)[C@H](CCC(N)=O)NC(=O)[C@H](CC(=O)O)NC(=O)[C@H](C)NC(=O)[C@H](CC(C)C)NC(=O)[C@H](CCC(=O)O)NC(=O)[C@H](Cc1ccccc1)NC(=O)[C@H](CC(=O)O)NC(=O)[C@H](CC(=O)O)NC(=O)CNC(=O)[C@H](CCC(=O)O)NC(=O)[C@H](CCC(=O)O)NC(=O)[C@@H](NC(=O)[C@H](CC(=O)O)NC(=O)[C@@H](NC(=O)[C@H](CC(=O)O)NC(=O)[C@H](CCC(=O)O)NC(=O)[C@H](CCC(=O)O)NC(=O)[C@@H]1CCCN1C(=O)CN)[C@@H](C)O)[C@@H](C)O)C(=O)N[C@@H](CCC(=O)O)C(=O)N[C@@H](CO)C(=O)N[C@@H](CCC(=O)O)C(=O)N[C@@H](CC(C)C)C(=O)N[C@@H](Cc1ccc(O)cc1)C(=O)O` [FAM134B444-470 L458A] (H-GPEEDTDTEEGDDFELADQSELDQIESELY-OH) the “N (site), stoichiometry of binding” value (GABARAP WT) was 0.99 ± 0.03 and the Kd (GABARAP WT; 20 mM HEPES pH 6.8, 150 mM NaCl, GABARAP WT in cell 10 times lower, single-site model) was 2.06 ± 0.61 µM.

With `CC[C@H](C)[C@H](NC(=O)[C@H](CCC(N)=O)NC(=O)[C@H](CC(=O)O)NC(=O)[C@H](CC(C)C)NC(=O)[C@H](C)NC(=O)[C@H](CO)NC(=O)[C@H](CCC(N)=O)NC(=O)[C@H](CC(=O)O)NC(=O)[C@H](CC(C)C)NC(=O)[C@H](CC(C)C)NC(=O)[C@H](C)NC(=O)[C@H](Cc1ccccc1)NC(=O)[C@H](CC(=O)O)NC(=O)[C@H](CC(=O)O)NC(=O)CNC(=O)[C@H](CCC(=O)O)NC(=O)[C@H](CCC(=O)O)NC(=O)[C@@H](NC(=O)[C@H](CC(=O)O)NC(=O)[C@@H](NC(=O)[C@H](CC(=O)O)NC(=O)[C@H](CCC(=O)O)NC(=O)[C@H](CCC(=O)O)NC(=O)[C@@H]1CCCN1C(=O)CN)[C@@H](C)O)[C@@H](C)O)C(=O)N[C@@H](CCC(=O)O)C(=O)N[C@@H](CO)C(=O)N[C@@H](CCC(=O)O)C(=O)N[C@@H](CC(C)C)C(=O)N[C@@H](Cc1ccc(O)cc1)C(=O)O` [FAM134B^444-470 E456A E462A] (H-GPEEDTDTEEGDDFALLDQSALDQIESELY-OH) the Kd (LC3B WT) was 8.2 ± 2.46 µM.

In the case of `CC[C@H](C)[C@H](NC(=O)[C@@H](NC(=O)[C@H](CCC(=O)O)NC(=O)[C@H](Cc1ccccc1)NC(=O)[C@@H]1CCCN1C(=O)[C@H](CO)NC(=O)[C@H](CCC(=O)O)NC(=O)[C@@H](N)Cc1ccc(O)cc1)C(C)C)C(=O)N[C@H](C(=O)N[C@@H](CC(=O)O)C(=O)O)[C@@H](C)CC` [RTN3245-253 WT (∆helix)] (H-YESPFEVIID-OH), the Kd (LC3A WT) is reported as 21.7 ± 3.62 µM.

In the case of `CC[C@H](C)[C@H](NC(=O)[C@@H](NC(=O)[C@H](CCC(=O)O)NC(=O)[C@H](Cc1ccccc1)NC(=O)[C@@H]1CCCN1C(=O)[C@H](CO)NC(=O)[C@@H](N)CCC(=O)O)C(C)C)C(=O)N[C@H](C(=O)N[C@@H](CC(=O)O)C(=O)N[C@@H](CCCCN)C(=O)N[C@@H](C)C(=O)N[C@@H](C)C(=O)N[C@@H](Cc1ccccc1)C(=O)N[C@@H](CC(=O)O)C(=O)N[C@@H](CCCCN)C(=O)N[C@@H](CCC(=O)O)C(=O)N[C@@H](Cc1ccccc1)C(=O)N[C@@H](CCCCN)C(=O)N[C@@H](CC(=O)O)C(=O)N[C@@H](CO)C(=O)N[C@@H](Cc1ccc(O)cc1)C(=O)O)[C@@H](C)CC` [RTN3245-264 WT] (H-ESPFEVIIDKAAFDKEFKDSY-OH), the Kd (LC3C WT) is reported as “not detected”.

`CC[C@H](C)[C@H](NC(=O)[C@H](CCSC)NC(=O)[C@H](CCC(=O)O)NC(=O)[C@H](Cc1ccccc1)NC(=O)[C@H](CC(=O)O)NC(=O)[C@@H](N)CC(N)=O)C(=O)N[C@H](C(=O)N[C@@H](CCCCN)C(=O)N[C@@H](Cc1ccc(O)cc1)C(=O)O)[C@@H](C)O` [SEC62^361-368 (Δhelix)] (H-NDFEMITKY-OH) showed a Kd (LC3C WT; read-out: Kd) of 31.9 ± 13.2 µM.

With `CSCC[C@H](NC(=O)[C@H](CCC(=O)O)NC(=O)[C@H](Cc1ccccc1)NC(=O)[C@H](CC(=O)O)NC(=O)[C@H](CC(N)=O)NC(=O)CNC(=O)[C@H](CC(N)=O)NC(=O)CNC(=O)[C@H](CO)NC(=O)[C@H](CO)NC(=O)[C@H](Cc1c[nH]cn1)NC(=O)[C@@H]1CCCN1C(=O)CN)C(=O)N[C@@H](C)C(=O)N[C@H](C(=O)N[C@@H](CCCCN)C(=O)N[C@@H](CCC(=O)O)C(=O)N[C@@H](CCC(=O)O)C(=O)N[C@@H](CC(C)C)C(=O)N[C@@H](CCC(=O)O)C(=O)N[C@@H](CCC(N)=O)C(=O)N[C@@H](CCC(N)=O)C(=O)N[C@H](C(=O)N[C@@H](CC(=O)O)C(=O)N[C@@H](Cc1ccc(O)cc1)C(=O)O)[C@@H](C)O)[C@@H](C)O` [SEC62355-376 I366A] (H-GPHSSGNGNDFEMATKEELEQQTDY-OH) the “N (site), stoichiometry of binding” value (GABARAP WT) was 0.87 ± 0.10.
